Tests used:
[1] = system: Monocotyledonous and dicotyledonous test plants; assay: Herbicidal action before emergence of the plants (pre-emergence action), greenhouse pot test, 9-level rating after 4 weeks; type: in vivo; settings: 250 g/ha, rated after 4 weeks, 9-level scale
Method in brief: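 Compounds applied pre-emergence as a spray (500 l water/ha) of aqueous suspension or emulsion onto soil immediately after sowing mono- and dicot species in pots. Greenhouse-grown; damage rated after 4 weeks on a 9-level scale (1=complete damage, 9=no effect).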

[2] = system: Monocotyledonous and dicotyledonous test plants; assay: Post-emergence herbicidal action, greenhouse pot test, sprayed at the 2- to 3-leaf stage, 9-level rating after 2 to 3 weeks; type: in vivo; settings: 250 g/ha, rated after 2 to 3 weeks, 9-level scale
Method in brief: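 Plants grown in standard soil in pots; test substances sprayed at the 2- to 3-leaf stage at optimum dosage (500 l water/ha) as aqueous suspension or emulsion from formulated concentrates. Plants then kept in the greenhouse under optimum conditions; rated after 2 to 3 weeks on a 9-level scale (1=complete damage, 9=no effect).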

SMILES | Pre-emergence action rating, Abutilon [1] | Pre-emergence action rating, Amaranthus [1] | Pre-emergence action rating, Chenop. [1] | Pre-emergence action rating, Digitaria [1] | Pre-emergence action rating, Echino. [1] | Pre-emergence action rating, Panicum [1] | Post-emergence action rating, Abutilon [2] | Post-emergence action rating, Amaranth [2] | Post-emergence action rating, Chenop. [2] | Post-emergence action rating, Digitaria [2] | Post-emergence action rating, Echino. [2] | Post-emergence action rating, Ipopur. [2] | Post-emergence action rating, Panicum [2] | Post-emergence action rating, Xanth. [2]
CS(=O)(=O)CCOCc1nc(C(F)(F)F)ccc1C(=O)C1=C(O)C2CCC(C2)C1=O (stereo not drawn) [A819-B52] | 1 | 2 | 1 | 9 | 7 | 7 | 2 | 2 | 1 | 3 | 2 | 2 | 2 | 2
COc1cc(OC)nc(SCc2nc(C(F)(F)F)ccc2C(=O)C2=C(O)C3CCC(C3)C2=O)n1 (stereo not drawn) [A830-B52] | 5 | 4 | 4 | 9 | 3 | 4 | 5 | 4 | 4 | 9 | 3 | 5 | 4 | 4
CC(=O)OCc1nc(C(F)(F)F)ccc1C(=O)C1=C([O-])C2CCC(C2)C1=O.[K+] (stereo not drawn) [A833-B52 (K+)] | 1 | 2 | 1 | 2 | 2 | 1 | 3 | 3 | 3 | 3 | 4 | 3 | 3 | 2
CC(=O)OCc1nc(C(F)(F)F)ccc1C(=O)C1=C(O)C2CCC(C2)C1=O (stereo not drawn) [A833-B52, (H4), 3-(2-Hydroxy-4-oxobicyclo[3.2.1]oct-2-en-3-carbonyl)-6-trifluoromethylpyridin-2-yl methyl acetate] | 1 | 1 | 1 | 1 | 1 | 1 | 3 | 2 | 3 | 3 | 4 | 2 | 3 | 1
O=C(C1=C(O)C2CCC(C2)C1=O)c1ccc(C(F)(F)F)nc1COCC(F)(F)F (stereo not drawn) [A834-B52] | 1 | 2 | 1 | 1 | 1 | 1 | 2 | 1 | 1 | 1 | 2 | 2 | 1 | 2
COCCOCCOCc1nc(C(F)(F)F)ccc1C(=O)C1=C(O)C2CCC(C2)C1=O (stereo not drawn) [A835-B52] | 2 | 1 | 2 | 2 | 1 | 1 | 2 | 2 | 1 | 1 | 2 | 2 | 1 | 3

— US7378375B1, “Substituted pyridine herbicides” (Syngenta Crop Protection, Inc., priority 2000, dated 2008)
